# Reference: US7951577B2, “Liquid crystals with reduced toxicity and applications thereof” (Wisconsin Alumni Research Foundation, priority 2003, dated 2011)
# “Also recorded” adds a separate entry of the source. Where two headings read alike, the source gives them in different places.
# What was measured:
# [1] = test system: SV-40 human corneal epithelial cells (HCEC); assay: TRANSWELL assay, prolonged (24 hour) exposure to liquid crystal, Calcein-AM readout; assay type: cell-based; conditions: 50 μL liquid crystal in upper chamber, confluent and sub-confluent SV-40 HCEC
# Procedure: FIGS. 5A and 5B present the results of additional experiments to evaluate the toxicity of two different liquid crystals, 5CB and TL-205, following prolonged exposure to cells. For these experiments, TRANSWELL assays were carried out in which cell cultures were plated onto membranes in a TRANSWELL plate such that they were fed from below by liquid media while in continual contact with the liquid crystal, which was directly overlaid on the cells themselves. Briefly, SV-40 human corneal epithelial cells (HCEC) were grown in SHEM+10% fetal bovine serum. Cells were removed from T-75 tissue culture plates via trypsinization, and counted using a hemacytometer. Cells were plated onto TRANSWELL membranes (3 μm pore size, Corning, Inc., Corning, N.Y.) that allowed them to remain in contact with the liquid crystal as well as with the growth medium for 24 hours. Cells were plated at a concentration of 20,000 cells/well and allowed to grow. Some cells were tested at a density of confluence, approximately 45,000 cells (FIG. 5A), while another set was tested at a density of sub-confluence, approximately 30,000 cells/well (FIG. 5B). […] Calcein-AM was added to each well, and the cell fluorescence was measured to assess cell number. Fluorescence was read using a SYNERGY HT plate reader (Bio-Tek, Instruments, Inc., Winooksi, Vt.).
# [2] = test system: SV-40 transformed human corneal epithelial cells (HCEC); assay type: cell-based; conditions: SV-40 HCEC, 4 hours under liquid crystal
# [3] = test system: vesicular stomatitis virus (VSV); assay type: cell-based; conditions: 1.5×10^7 pfu VSV, 1 hour at 37° C., supernatant titrated after 2 days
# HeLa cells [4] = assay: Effects of liquid crystals on HeLa cells (morphology and viability); conditions: DSCG in water; 30% (w/v) A3 in H2O; 21% (w/v) C14AO in H2O with 3% C10OH
# Procedure: (§1) HeLa mammalian cell line (from human cervical cancer cells) were grown in poly-L-lysine (MW 30,000 to 70,000)-treated coverslips in a 12-well plate in MEM medium supplemented with 10% fetal bovine serum. HeLa cells were grown in tissue culture plates until the cells reached a confluency of 90 to 95% within 24 hrs and were maintained at 37° C. with 5% CO2.
# (§2) After incubation for less than one day, the DMEM was removed, the cells washed with PBS, 250 μl of the liquid crystal solution was overlaid.
# (§3) The overlaid cultures were incubated at 37° C. for 4 hours, at which time the liquid crystals were removed, the cells were washed with PBS, and 1 mL of medium DMEM was added back to the cells. The cells were then incubated in the medium at 37° C. for an additional 4 days and then evaluated for morphology and viability.
# [5] = test system: vesicular stomatitis virus (VSV); assay type: cell-based; conditions: 2×10^7 pfu VSV, room temperature, 30 minutes, 1 hour or 4 hours
# [6] = Viscosity of lyotropic liquid crystals; assay type: physicochemical; conditions: DSCG 9% wt, Triton 60% wt, Brij 50% wt, AMO 20% wt
# Procedure: Lyotropic liquid crystals were investigated for their biocompatibility and bio-inertness based on the following three criteria: (1) viscosity; (2) observed birefringence of the liquid crystal; and (3) protein binding activity when proteins are dissolved in the lyotropic liquid crystals. The stability of protein structure in the lyotropic liquid crystals is implicitly tested based on the evaluation of criterion (3). The binding activity of antibodies in the liquid crystal was tested by covalent attachment of an antibody to a solid surface and measurement of the binding of a fluorescently labeled antibody to the immobilized antibody.
# Human IgG = assay: Test of antibody binding in lyotropic liquid crystals (FITC anti-Human IgG to immobilized Human IgG); conditions: 200 nM FITC anti-Human IgG in liquid crystal (10% DSCG), 4 hours, room temperature
# pH of DSCG in water = assay type: physicochemical
# HeLa cells [7] = test system: HeLa cells
# Procedure: as §1, §2, §3
compound,measurement,setting,value
"CCCCCc1ccc(-c2ccc(C#N)cc2)cc1 [5CB, 4-cyano-4′-pentylbiphenyl]",cell viability after prolonged exposure,[1],appears to kill cells
same,toxicity to cells (in words),[2],toxic
COCCOCCOCCOCc1c(C)c(COCCOCCOCCOC)c(C)c(COCCOCCOCCOC)c1C [A3],VSV growth after inoculation of HeLa cells in the presence of liquid crystal,[3],no growth of VSV was observed
same,appearance of HeLa cells during contact with liquid crystal,HeLa cells [4],cell membranes started to show a rough appearance (blebbing) and the nuclei condensed
same,VSV infectivity after incubation of virus with liquid crystal,[5],no growth of VSV was observed
"CCCCCCCCCCCCCC[N+](C)(C)[O-] [AMO, tetradecyldimethylamineoxide]",Viscosity,[6],50-200 cp
same,antibody binding activity in the lyotropic liquid crystal (in words),Human IgG,preserve specific antibody binding activity
"O=C(O)c1cc(=O)c2c(OCC(O)COc3cccc4oc(C(=O)O)cc(=O)c34)cccc2o1 [DSCG, disodium chromoglycate]",Viscosity,[6],0.5-30 cp
same,VSV growth after inoculation of HeLa cells in the presence of liquid crystal,[3],VSV can infect cells in the presence of DSCG
same,antibody binding activity in the lyotropic liquid crystal (in words),Human IgG,FITC fluorescence was only found in the arrayed spots
same,pH,pH of DSCG in water,< 6
same,VSV infectivity after incubation of virus with liquid crystal,[5],VSV is stable in the presence of DSCG; also recorded: the concentration of the virus had not changed significantly
same,HeLa cells after liquid crystal removed and medium added back,HeLa cells [7],proliferated well after the medium was added
same,appearance of HeLa cells during contact with liquid crystal,HeLa cells [7],cells rounded up and detached from the surface
Laurate,Viscosity,[6],1-100 cp
same,antibody binding activity in the lyotropic liquid crystal (in words),Human IgG,interfered with antibody binding activities
Triton,Viscosity,[6],>100 cp
same,antibody binding activity in the lyotropic liquid crystal (in words),Human IgG,interfered with antibody binding activities
